Values quoted from earlier work as cited in patent publication US20230139125A1, “DIETARY SUPPLEMENT FOR IMPROVING BRAIN PERFORMANCE” (priority 2021, published 2023).

How the values were obtained:
age-related memory loss = conditions: end of six-month period; participants with relatively low memory scores at start; compared to placebo
[1] = test system: brain-derived neurotrophic factor (i.e. BDNF); conditions: ingesting small amounts

Phosphatidylserine [PS]
memory (age-related memory loss): significant improvement in memory

chlorogenic acids
brain-derived neurotrophic factor (i.e. BDNF) [1]: not obtained
